Results published in publication PMC10307035, “Antiviral activity of singlet oxygen-photogenerating perylene compounds against SARS-CoV-2: Interaction with the viral envelope and photodynamic virion inactivation” (Virus Research, 2023).
Like-named read-outs stand apart in the source and are kept apart here.

Experiments:
Assay type in all cases: cell-based
[1] = system: SARS-CoV-2 (Wuhan variant); assay: microbe, parasite or virus in culture; details: for inhibition of SARS-CoV-2 replication in virus-infected cells: 2 and 10 µM, Vero cells
[2] = system: SARS-CoV-2 variants Alpha (B.1.1.7), Beta (B.1.351), Gamma (p.1), Delta (B.1.617.2), and Omicron (B.1.1.529); details: 1 and 10 µM, 48 h, Vero cells
[3] = system: SARS-CoV-2 (Wuhan variant); assay: Virucidal activity against SARS-CoV-2 (plaque assay); details: 10 µM, 120 min at 37 °C in the dark
[4] = Severe acute respiratory syndrome coronavirus 2, Vero, 48 h, read-out: App. EC50
[5] = Severe acute respiratory syndrome coronavirus 2, Vero, read-out: EC50

SMILES | EC50 [1, 4] [nM] | EC50 [1, 5] [nM] | EC50 ([1]; read-out: EC50) [nM] | replication of all tested SARS-CoV-2 variants [2] | inhibition of SARS-CoV-2 replication in virus-infected cells [1] | virucidal effect against SARS-CoV-2 (ranking) [3]
O=c1[nH]c(=O)n([C@@H]2O[C@H](CO)[C@@H](O)[C@@H]2O)cc1C#Cc1ccc2c3cccc4cccc(c5cccc1c52)c43 [Compound 1, 5-(perylen-3-yl)ethynyl-arabino-uridine] | 1120 | 406 | 406 | – | – | –
O=c1[nH]c(=O)n([C@H]2C[C@H](O)[C@@H](CO)O2)cc1C#Cc1ccc2c3cccc4cccc(c5cccc1c52)c43 [Compound 2, 5-(perylen-3-yl)ethynyl-2′-deoxy-uridine] | 843 | 256 | 256 | efficiently inhibited | – | –
O=c1[nH]cc(C#Cc2ccc3c4cccc5cccc(c6cccc2c63)c54)c(=O)[nH]1 [Compound 3] | > 5000 | > 2500 | – | – | – | –
Cn1cc(C#Cc2ccc3c4cccc5cccc(c6cccc2c63)c54)c(=O)n(C)c1=O [Compound 4] | 2060 | 406 | 406 | – | – | –
CC(C)(C)C(=O)OCn1c(=O)c(C#Cc2ccc3c4cccc5cccc(c6cccc2c63)c54)cn(CC(=O)O)c1=O [Compound 5] | > 5000 | ~2000 | 2050 | – | – | –
CC(C)(C)C(=O)OCn1c(=O)c(C#Cc2ccc3c4cccc5cccc(c6cccc2c63)c54)cn(CC(=O)NCCCCO)c1=O [Compound 6] | 781 | 91.5 | – | – | – | –
CC(C)(C)C(=O)OCn1c(=O)c(C#Cc2ccc3c4cccc5cccc(c6cccc2c63)c54)cn(CC(=O)NC[C@@H](O)C(C)(C)CO)c1=O [Compound 7] | 1170 | 417 | – | – | complete inhibition | –
CCCCNC(=O)Cn1cc(C#Cc2ccc3c4cccc5cccc(c6cccc2c63)c54)c(=O)n(COC(=O)C(C)(C)C)c1=O [Compound 8] | > 5000 | ~2000 | – | – | – | –
CC(C)(C)C(=O)OCn1c(=O)c(C#Cc2ccc3c4cccc5cccc(c6cccc2c63)c54)cn(CC(=O)NCCO)c1=O [Compound 9] | 781 | 140 | – | – | – | –
CC(C)(C)C(=O)OCn1c(=O)c(C#Cc2ccc3c4cccc5cccc(c6cccc2c63)c54)cn(CC(=O)NCCCO)c1=O [Compound 10] | 1930 | 382 | – | – | – | –
CC(C)(C)C(=O)OCn1c(=O)c(C#Cc2ccc3c4cccc5cccc(c6cccc2c63)c54)cn(CC(=O)NCCCCCO)c1=O [Compound 11] | 1070 | 433 | – | – | – | –
CC(C)(C)C(=O)OCn1c(=O)c(C#Cc2ccc3c4cccc5cccc(c6cccc2c63)c54)cn(CC(=O)NCCCCCCO)c1=O [Compound 12] | > 5000 | 812 | 812 | – | – | –
CC(C)(C)C(=O)OCn1c(=O)c(C#Cc2ccc3c4cccc5cccc(c6cccc2c63)c54)cn(CC(=O)N(CCO)CCO)c1=O [Compound 13] | 622 | 274 | – | efficiently inhibited | complete inhibition | –
CN(C)c1ccc(C#Cc2ccc3c4cccc5cccc(c6cccc2c63)c54)cc1 [Compound 14] | > 5000 | > 2500 | – | – | – | –
CC(=O)Nc1ccc(C#Cc2ccc3c4cccc5cccc(c6cccc2c63)c54)cc1 [Compound 15] | 325 | 63 | 63.1 | – | – | –
O=C(O)c1ccc(-c2ccc3c4cccc5cccc(c6cccc2c63)c54)s1 [Compound 16] | 2560 | 536 | 537 | – | – | –
O=C(NCCCCO)c1ccc(-c2ccc3c4cccc5cccc(c6cccc2c63)c54)s1 [Compound 17] | < 4 | < 4 | – | efficiently inhibited | – | strongest virucidal effect
O=C(c1ccc(-c2ccc3c4cccc5cccc(c6cccc2c63)c54)s1)N(CCO)CCO [Compound 18] | 132 | 19 | 19.1 | – | – | –
CCCCNC(=O)c1ccc(-c2ccc3c4cccc5cccc(c6cccc2c63)c54)s1 [Compound 19] | 470 | 98 | 98.2 | – | – | –
O=C(O)c1ccc2c3cccc4cccc(c5cccc1c52)c43 [Compound 20] | > 5000 | > 2500 | – | – | – | –
